# Measured values taken from patent US6610846B1, “Heteroaromatic glucokinase activators” (Hoffman-La Roche Inc., priority 1999, dated 2003).
row,SMILES,melting point
1,"Nc1ccc(C(CC2CCCC2)C(=O)Nc2nccs2)cc1 (stereo not shown) [Example 4, 2-(4-Amino-phenyl)-3-cyclopentyl-N-thiazol-2-yl-propionamide]",102 to 107 °C
2,"Nc1cccc(C(CC2CCCC2)C(=O)Nc2nccs2)c1 (stereo not shown) [Example 5, 2-(3-Amino-phenyl)-3-cyclopentyl-N-thiazol-2-yl-propionamide]",158 to 160 °C
3,"O=C(Nc1nccs1)C(CC1CCCC1)c1cccc(Cl)c1 (stereo not shown) [Example 6, 2-(3-Chloro-phenyl)-3-cyclopentyl-N-thiazol-2-yl-propionamide]",138.8 to 141.2 °C
4,"O=C(Nc1nccs1)C(CC1CCCC1)c1ccc(C(F)(F)F)cc1 (stereo not shown) [Example 8, 3-Cyclopentyl-N-thiazol-2-yl-2-(4-trifluoromethyl-phenyl)-propionamide]",210 to 212 °C
5,"CSc1ccc(C(CC2CCCC2)C(=O)Nc2nccs2)cc1 (stereo not shown) [Example 9, 3-Cyclopentyl-2-(4-methylsulfanyl-phenyl)-N-thiazol-2-yl-propionamide]",195 to 196 °C
6,"CS(=O)(=O)c1ccc(C(CC2CCCC2)C(=O)Nc2nccs2)cc1[N+](=O)[O-] (stereo not shown) [Example 14, 3-Cyclopentyl-2-(4-methanesulfonyl-3-nitrophenyl)-N-thiazol-2-yl-propionamide]",121 to 124 °C
7,"O=C(Nc1ncc(CO)s1)C(CC1CCCC1)c1ccc(Cl)c(Cl)c1 (stereo not shown) [Example 15, 3-Cyclopentyl-2-(3,4-dichlorophenyl)-N-(5-hydroxymethyl-thiazol-2-yl)-propionamide]",128 to 130 °C
8,"O=C(Nc1nc(CCO)cs1)C(CC1CCCC1)c1ccc(Cl)c(Cl)c1 (stereo not shown) [Example 16, 3-Cyclopentyl-2-(3,4-dichlorophenyl)-N-[4-(2-hydroxyethyl)-thiazol-2-yl]-propionamide]",85 to 86 °C
9,"O=C(Nc1nc(CO)cs1)C(CC1CCCC1)c1ccc(Cl)c(Cl)c1 (stereo not shown) [Example 17, 3-Cyclopentyl-2-(3,4-dichlorophenyl)-N-(4-hydroxymethyl-thiazol-2-yl)-propionamide]",88 to 90 °C
10,"O=C(O)Cc1csc(NC(=O)C(CC2CCCC2)c2ccc(Cl)c(Cl)c2)n1 (stereo not shown) [Example 18, {2-[3-Cyclopentyl-2-(3,4-dichlorophenyl)-propionylamino]-thiazol-4-yl}-acetic acid]",100 to 102 °C
11,"O=C(Nc1nccs1)C(CC1CCCC1)c1ccc([N+](=O)[O-])cc1 (stereo not shown) [Example 22(A), 3-Cyclopentyl-2-(4-nitro-phenyl)-N-thiazol-2-yl-propionamide]",186 to 187 °C
12,"COC(=O)c1csc(NC(=O)C(CC2CCCC2)c2cccc(Cl)c2)n1 (stereo not shown) [Example 30, 2-[2-(3-Chloro-phenyl)-3-cyclopentyl-propionylamino]-thiazole-4-carboxylic acid methyl ester]",95 to 98 °C
13,"COC(=O)c1csc(NC(=O)C(CC2CCCC2)c2ccc(Cl)cc2)n1 (stereo not shown) [Example 32, 2-[2-(4-Chloro-phenyl)-3-cyclopentyl-propionylamino]-thiazole-4-carboxylic acid methyl ester]",156 to 157 °C
14,"CS(=O)(=O)c1ccc(C(CC2CCCC2)C(=O)Nc2nc(CO)cs2)cc1 (stereo not shown) [Example 35, 3-Cyclopentyl-N-(4-hydroxymethyl-thiazol-2-yl)-2-(4-methanesulfonyl-phenyl)-propionamide]",124 to 126 °C
15,"CS(=O)(=O)c1ccc(C(CC2CCCC2)C(=O)Nc2nc(CCO)cs2)cc1 (stereo not shown) [Example 36, 3-Cyclopentyl-N-[4-(2-hydroxyethyl)-thiazol-2-yl]-2-(4-methanesulfonyl-phenyl)-propionamide]",84 to 87 °C
16,"CS(=O)(=O)c1ccc(C(CC2CCCC2)C(=O)Nc2ccccn2)cc1 (stereo not shown) [Example 42, 3-Cyclopentyl-2-(4-methanesulfonyl-phenyl)-N-pyridin-2-yl-propionamide]",172 to 173 °C
17,"O=C(O)c1ccc(NC(=O)C(CC2CCCC2)c2ccc(Cl)cc2)nc1 (stereo not shown) [Example 47, 6-[2-(4-Chloro-phenyl)-3-cyclopentyl-propionylamino]-nicotinic acid]",206 to 208 °C
18,"O=C(Nc1ccc(CO)cn1)C(CC1CCCC1)c1ccc(Cl)cc1 (stereo not shown) [Example 50, 2-(4-Chloro-phenyl)-3-cyclopentyl-N-(5-hydroxymethyl-pyridin-2-yl)-propionamide]",60 to 62 °C
19,"CS(=O)(=O)c1ccc(C(CC2CCCC2)C(=O)Nc2ccc(CO)cn2)cc1 (stereo not shown) [Example 52, 3-Cyclopentyl-N-(5-hydroxymethyl-pyridin-2-yl)-2-(4-methanesulfonyl-phenyl)-propionamide]",74 to 77 °C
20,"Cc1ccc(NC(=O)C(CC2CCCC2)c2ccc(S(C)(=O)=O)cc2)nc1 (stereo not shown) [Example 53(A), 3-Cyclopentyl-2-(4-methanesulfonyl-phenyl)-N-(5-methyl-pyridin-2-yl)-propionamide]",184 to 185 °C

# Other lines, results leading:
row,melting point,SMILES
1,107 to 110 °C,CS(=O)(=O)c1ccc(C(CC2CCCC2)C(=O)Nc2ccccn2)cc1S(C)(=O)=O (stereo not shown)
2,201 to 202 °C,"O=C(Nc1nccs1)C(CC1CCCC1)c1ccc(Br)cc1 (stereo not shown) [Example 2, 2-(4-Bromo-phenyl)-3-cyclopentyl-N-thiazol-2-yl-propionamide]"
3,58 to 60 °C,"O=C(Nc1nccs1)C(CC1CCCC1)c1ccc(SC(F)(F)F)cc1 (stereo not shown) [Example 10, 3-Cyclopentyl-N-thiazol-2-yl-2-(4-trifluoromethylsulfanyl-phenyl)-propionamide]"
4,269 to 270 °C,"O=C(O)c1cnc(NC(=O)C(CC2CCCC2)c2ccc(Cl)c(Cl)c2)s1 (stereo not shown) [Example 19, 2-[3-Cyclopentyl-2-(3,4-dichlorophenyl)-propionylamino]-thiazole-5-carboxylic acid]"
5,152 to 154 °C,"O=C(Nc1ccccn1)C(CC1CCCC1)c1ccc([N+](=O)[O-])cc1 (stereo not shown) [Example 39(A), 3-Cyclopentyl-2-(4-nitro-phenyl)-N-pyridin-2-yl-propionamide]"
6,127 to 128 °C,"CSc1ccc(C(CC2CCCC2)C(=O)Nc2ccccn2)cc1 (stereo not shown) [Example 40, 3-Cyclopentyl-2-(4-methylsulfanyl-phenyl)-N-pyridin-2-yl-propionamide]"
7,101 to 102 °C,"O=C(Nc1ccccn1)C(CC1CCCC1)c1ccc(SC(F)(F)F)cc1 (stereo not shown) [Example 41, 3-Cyclopentyl-N-pyridin-2-yl-2-(4-trifluoromethylsulfanyl-phenyl)-propionamide]"
8,191 to 193 °C,"CS(=O)(=O)c1ccc(C(CC2CCCC2)C(=O)Nc2ccc(C(=O)O)cn2)cc1 (stereo not shown) [Example 48, 6-[3-Cyclopentyl-2-(4-methanesulfonyl-phenyl)-propionylamino]-nicotinic acid]"
9,79 to 81 °C,"O=C(Nc1ccc(O)cn1)C(CC1CCCC1)c1ccc(Cl)c(Cl)c1 (stereo not shown) [Example 51, 3-Cyclopentyl-2-(3,4-dichloro-phenyl)-N-(5-hydroxy-pyridin-2-yl)-propionamide]"
10,58 to 60 °C,"O=C(Nc1ncc[nH]1)C(CC1CCCC1)c1ccc(Cl)c(Cl)c1 (stereo not shown) [Example 55, 3-Cyclopentyl-2-(3,4-dichlorophenyl)-N-(1H-imidazol-2-yl)-propionamide]"
11,84 to 86 °C,"Cc1cc(NC(=O)C(CC2CCCC2)c2ccc(Cl)c(Cl)c2)no1 (stereo not shown) [Example 56, 3-Cyclopentyl-2-(3,4-dichlorophenyl)-N-(5-methyl-isoxazol-3-yl)-propionamide]"
